One test concerns HeLa. The test is described as follows: Cytotoxicity against human HeLa cells by MTT assay. Format: functional, cell-based. On the technique in general: Tetrazolium assays rely on reduction of a dye to a coloured formazan, in cell work by metabolically active cells.
A further test deals with A549. The test is described as follows: Cytotoxicity against human A549 cells by MTT assay. Format: functional, cell-based.
For the next test, the system named is MCF7. The test is described as follows: Cytotoxicity against human MCF7 cells by MTT assay. It counts as functional, cell-based.
A further test deals with K562. Briefly: Cytotoxicity against human K562 cells by MTT assay. Format: functional, cell-based.
For another test, the system named is HCT-116. Briefly: Cytotoxicity against human HCT116 cells by MTT assay. It counts as functional, cell-based.
The nature of test [1]: Cytotoxicity against human U87 cells by MTT assay. The note with it: U-87 MG. It counts as functional, cell-based, U-87MG ATCC.
For the next test, the system named is HepG2. The test is described as follows: Cytotoxicity against human HepG2 cells by MTT assay. It counts as functional, cell-based.
Test [2] in a line: Cytotoxicity against human HL-7702 by MTT assay. The note with it: L02.
Another test concerns H9c2. Briefly: Cytotoxicity against rat H9c2 cells by MTT assay. It counts as cell-based.

A word on the IC50: it is the point on the concentration scale where inhibition reaches its midpoint.

Regarding `C[C@@H]1CC[C@@]2(NC1)O[C@H]1C[C@H]3[C@@H]4CC=C5C[C@@H](O[C@@H]6O[C@H](CO)[C@@H](O[C@@H]7O[C@@H](C)[C@H](O)[C@@H](O)[C@H]7O)[C@H](O)[C@H]6O[C@@H]6O[C@@H](C)[C@H](O)[C@@H](O)[C@H]6O)CC[C@]5(C)[C@H]4CC[C@]3(C)[C@H]1[C@@H]2C` [SOLAMARGINE], the IC50 in the test with HeLa came out at 6 µM; in the test with A549 it was 8 µM; in the test on MCF7, 2.1 µM; in the test with K562, 5.2 µM; with HCT-116 it was 3.8 µM; in [1] it was 3.2 µM. Moreover, the IC50 is 2.5 µM in the test with HepG2, 13.5 µM in [2] and over 20 µM with H9c2.
